The source of these data is PubChem BioAssay (NCI).

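These data come from cells grown in 96-well plates and exposed to compound for 48 hours at five concentrations. GI50 = concentration required for 50% inhibition of growth. At the TGI there is no net growth.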

Test systems include DLD-1 colon; HCC-2998 colon; HL-60(TB) leukemia; HOP-92 NSCLC; HS 578T breast; IGROV1 ovarian; KM20L2 colon; MDA-MB-435; NCI/ADR-RES ovarian; OVCAR-8 ovarian.
Assay in all cases: DTP human tumour cell line panel, 48 h

Consider `[CH3][Sn]([CH3])([CH3])[O]C(=O)C(O)c1ccccc1` (centres undefined), for which the GI50 (usually the concentration at which growth is held to half of that of the control) in the assay with DLD-1 colon is 4.93 µM; with HCC-2998 colon, 2.32 µM; with HL-60(TB) leukemia, 4.75 µM; with HOP-92 NSCLC it was 2.91 µM; with HS 578T breast, 11.5 µM; with IGROV1 ovarian it was 8.47 µM. The GI50 was 2.98 µM in the assay with KM20L2 colon, 3.52 µM with MDA-MB-435, 6.39 µM in the assay with NCI/ADR-RES ovarian and 4.65 µM with OVCAR-8 ovarian. For the same molecule, the TGI (in general, the concentration giving total growth inhibition) was over 100 µM in the assay with DLD-1 colon; 7.15 µM in the assay on HCC-2998 colon; over 40.5 µM in the assay with HL-60(TB) leukemia; 14.4 µM in the assay with HOP-92 NSCLC; 59.8 µM with HS 578T breast; over 87.3 µM in the assay with IGROV1 ovarian. The TGI was 9.42 µM in the assay on KM20L2 colon, 14.8 µM in the assay on MDA-MB-435, 79.5 µM in the assay with NCI/ADR-RES ovarian and over 54.9 µM with OVCAR-8 ovarian.

In the case of `COc1cc(-c2ccc(Nc3ccccc3C(=O)O)c(OC)c2)ccc1Nc1ccccc1C(=O)O`, the TGI in the assay on DLD-1 colon was over 72.8 µM; with HCC-2998 colon, over 82 µM; in the assay on HL-60(TB) leukemia it was 65.8 µM; in the assay on HOP-92 NSCLC it was 66.9 µM; in the assay with HS 578T breast, over 100 µM; in the assay with IGROV1 ovarian, over 100 µM. In addition, the TGI in the assay with KM20L2 colon is over 100 µM; in the assay with MDA-MB-435, 46 µM; in the assay with NCI/ADR-RES ovarian, over 100 µM; with OVCAR-8 ovarian, 81.5 µM.

Take `O=C1C=CC(=O)c2c1cc1ccccc1c2O`: the TGI in the assay with DLD-1 colon was determined as 3.24 µM; in the assay with HCC-2998 colon, 32.8 µM; in the assay on HOP-92 NSCLC it was 3.61 µM; in the assay on HS 578T breast it was 38.9 µM; in the assay on IGROV1 ovarian it was 15.6 µM; in the assay on KM20L2 colon it was 40.2 µM. Besides, the TGI in the assay on MDA-MB-435 worked out at 19.2 µM; in the assay on NCI/ADR-RES ovarian it was 25.8 µM; in the assay on OVCAR-8 ovarian it was 8.96 µM.
